Measured values taken from BindingDB's records for doi:10.1074/jbc.M406801200 (The Scripps Research Institute, 2004).
pIC50: −log10 of the molar value.

Biological target: Bifunctional purine biosynthesis protein ATIC (Homo sapiens, UniProt P31939)
Assay: AICAR Tfase Inhibition Assay
Conditions: pH 7.5; 22 °C
Method: The human ATIC enzyme was used for the inhibition assay. The assay buffer was flushed with nitrogen to minimize oxidization of cofactor 10-f-THF. The reaction was initiated by adding the substrate AICAR to reaction mixtures containing ATIC, test compounds, and different concentrations of cofactor. […] The THF was generated in the transfer reaction of the formyl group from cofactor to AICAR to produce 5-formyl-AICAR. IC50 values were measured from dose-response curves.

Sequence of Bifunctional purine biosynthesis protein ATIC (P31939 whole entry): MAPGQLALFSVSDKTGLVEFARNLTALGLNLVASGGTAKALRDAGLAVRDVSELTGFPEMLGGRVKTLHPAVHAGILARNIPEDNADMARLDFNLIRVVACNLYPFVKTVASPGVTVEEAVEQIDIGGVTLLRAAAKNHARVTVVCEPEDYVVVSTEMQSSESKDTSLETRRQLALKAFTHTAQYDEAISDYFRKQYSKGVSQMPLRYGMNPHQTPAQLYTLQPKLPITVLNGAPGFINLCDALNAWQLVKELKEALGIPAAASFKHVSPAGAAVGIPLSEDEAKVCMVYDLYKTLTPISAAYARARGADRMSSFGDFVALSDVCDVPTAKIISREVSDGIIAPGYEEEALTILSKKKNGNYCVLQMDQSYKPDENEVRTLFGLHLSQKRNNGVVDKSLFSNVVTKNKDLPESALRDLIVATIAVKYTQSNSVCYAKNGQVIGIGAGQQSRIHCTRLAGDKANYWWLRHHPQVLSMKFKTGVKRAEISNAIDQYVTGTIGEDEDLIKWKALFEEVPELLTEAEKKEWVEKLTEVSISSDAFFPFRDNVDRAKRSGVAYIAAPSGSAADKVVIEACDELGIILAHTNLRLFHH

Compound	pIC50
Cc1cc(N=Nc2c(C)[nH]n(-c3ccc(S(=O)(=O)O)cc3)c2=O)ccc1S(=O)(=O)Nc1ccccc1	4.94
Cc1[nH]n(-c2ccc(S(=O)(=O)O)cc2)c(=O)c1N=Nc1cc(Cl)cc(S(=O)(=O)O)c1C(=O)O [4-chloro-2-[(E)-2-[5-hydroxy-3-methyl-1-(4-sulfophenyl)-1H-pyrazol-4-yl]diazen-1-yl]-6-sulfobenzoic acid]	4.38
Cc1ccc(OS(=O)(=O)c2ccc(N=Nc3c(C)[nH]n(-c4ccc(Cl)cc4S(=O)(=O)O)c3=O)cc2)cc1 [5-chloro-2-{5-hydroxy-3-methyl-4-[(E)-2-[4-(4-methylphenoxysulfonyl)phenyl]diazen-1-yl]-1H-pyrazol-1-yl}benzene-1-sulfonic acid]	5.48
Cc1[nH]n(-c2cc(Cl)c(S(=O)(=O)O)cc2Cl)c(=O)c1N=Nc1ccc(S(=O)(=O)O)cc1 [yellow 2G]	4.70
O=S(=O)(O)Oc1c(-c2sc3c(ccc4cccc(Cl)c43)c2OS(=O)(=O)O)[nH]c2ccc(Br)cc12 [{4-[5-bromo-3-(sulfooxy)-1H-indol-2-yl]-13-chloro-3-thiatricyclo[7.4.0.0^{2,6}]trideca-1(9),2(6),4,7,10,12-hexaen-5-yl}oxidanesulfonic acid]	5.85
